Test results reported in US10604490B2, “Processes for preparing ASK1 inhibitors” (Gilead Sciences, Inc., priority 2014, dated 2020).
In brackets after ≈: the same amount, converted by molar mass. Read-outs that look alike come from different tables or passages of the source. Each block holds one molecule with its values, some of them ahead of it.

Tests used:
[1] = DVS analysis (moisture uptake); type: physicochemical; conditions: at 90% RH
Description: Compound of Formula (D) Form I was obtained after the isothermal hold of Compound of Formula (D) hydrate Form I at about 150° C. Compound of Formula (D) Form I was also obtained after KF analysis of Compound of Formula (D) Form II and Compound of Formula (D) Form I at about 180° C. Slurries of Compound of Formula (D) hydrate Form I in water miscible organic solvents also afforded Compound of Formula (D) Form I (MeCN, MeOH, EtOH, IPA, acetone, and THF). […] (FIG. 10). DSC thermogram afforded single endotherm with onset at about 252° C. (FIG. 11). […] No form change was observed after DVS.

[2] = Hydrate screen: solubility in EtOH/water mixtures with different water activities; type: physicochemical; conditions: thermodynamic from solid, slurry at room temperature
Description: A hydrate screen of Compound of Formula (D) was performed using a mixture of anhydrous forms of Compound of Formula (D) Form II and of Compound of Formula (D) Form I and EtOH/water solvent mixtures with different water activities (Table 1). Compound of Formula (D) Form II and Compound of Formula (D) Form I (about 20 to about 40 mg) was slurried in about 1 mL of EtOH/water or water. Samples were analyzed after about 1 day and after about 2 weeks of equilibration at room temperature. Pure anhydrous Compound of Formula (D) Form I was obtained after 1 day in mixtures with about 0.2 to about 0.4 water activity. However, after 2 weeks of equilibration a new form was obtained in EtOH/water with 0.4 water activity. This form was designated as Compound of Formula (D) Form III. Compound of Formula (D) hydrate Form I was obtained in solvents with about 0.5 to about 1.0 water activity after 1 day and after about 2 weeks.

[3] = slurry at room temperature
Description: (§1) A stable form screen of Compound of Formula (D) hydrate Form I was performed in an attempt to determine the stability of Compound of Formula (D) hydrate Form I in different organic solvents. […] Compound of Formula (D) hydrate Form I (about 50 to about 60 mg) was slurried in about 1 mL of chosen solvent. Solids were analyzed by XRPD after about 1 day and about 2 weeks of equilibration at room temperature.
as §1, with “in” for “in about”, “after” for “after about”, “and” for “and about”

- moisture uptake (DVS; slightly hygroscopic) [1]: about 0.5%
Structure (SMILES): Cc1cc(F)c(C(=O)O)cc1-n1cnc(C2CC2)c1 [Compound of Formula (D) Form I]

- Solubility ([2]; EtOH/water solvent mixture, aqueous with cosolvent or surfactant or cyclodextrin, EtOH/water, water activity 0.9 (water 0.825 mL, EtOH 0.175 mL)): 3930 µg/mL (≈ 15.1 mM)
- Solubility ([2]; EtOH/water solvent mixture, organic solvent or mixture, EtOH/water, water activity 0.2 (water 0.031 mL, EtOH 0.969 mL)): 7270 µg/mL (≈ 27.9 mM)
- Solubility ([2]; EtOH/water solvent mixture, organic solvent or mixture, EtOH/water, water activity 0.3 (water 0.066 mL, EtOH 0.934 mL)): 8060 µg/mL (≈ 31 mM)
- Solubility ([2]; EtOH/water solvent mixture, organic solvent or mixture, EtOH/water, water activity 0.4 (water 0.077 mL, EtOH 0.923 mL)): 7860 µg/mL (≈ 30.2 mM)
- Solubility ([2]; EtOH/water solvent mixture, organic solvent or mixture, EtOH/water, water activity 0.5 (water 0.097 mL, EtOH 0.903 mL)): 8160 µg/mL (≈ 31.4 mM)
- Solubility ([2]; EtOH/water solvent mixture, organic solvent or mixture, EtOH/water, water activity 0.6 (water 0.149 mL, EtOH 0.851 mL)): 6590 µg/mL (≈ 25.3 mM)
- Solubility ([2]; EtOH/water solvent mixture, organic solvent or mixture, EtOH/water, water activity 0.7 (water 0.263 mL, EtOH 0.737 mL)): 6880 µg/mL (≈ 26.4 mM)
- Solubility ([2]; EtOH/water solvent mixture, organic solvent or mixture, EtOH/water, water activity 0.8 (water 0.481 mL, EtOH 0.519 mL)): 6560 µg/mL (≈ 25.2 mM)
- Solubility ([2]; water, water activity 1.0 (water 1.0 mL, EtOH 0)): 3320 µg/mL (≈ 12.8 mM)
Structure (SMILES): Cc1cc(F)c(C(=O)O)cc1-n1cnc(C2CC2)c1 [5-(4-cyclopropyl-1H-imidazol-1-1-2-fluoro-4-methylbenzoic acid]

- Solubility ([3]; solvent 2-MeTHF): 4480 µg/mL
- Solubility ([3]; solvent Acetone): 1990 µg/mL
- Solubility ([3]; solvent DCM): 190 µg/mL
- Solubility ([3]; solvent EtOAc): 730 µg/mL
- Solubility ([3]; solvent EtOH): 6180 µg/mL
- Solubility ([3]; solvent IPA): 2900 µg/mL
- Solubility ([3]; solvent IPAc): 450 µg/mL
- Solubility ([3]; solvent MeCN): 400 µg/mL
- Solubility ([3]; solvent MeOH): 20670 µg/mL
- Solubility ([3]; solvent THF): 11790 µg/mL
Structure (SMILES): Cc1cc(F)c(C(=O)O)cc1-n1cnc(C2CC2)c1.O [Compound of Formula (D) Hydrate Form I]
